One may read the IC50 as the concentration at which inhibition is half-maximal.

The target in the first assay is BTK, recombinant human catalytic domain (aa 393-659) (Homo sapiens (Human), UniProt Q06187). The assay is described as follows: In vitro BTK kinase activity measured by time-resolved fluorescence resonance energy transfer (trFRET). The class given is biochemical. As to conditions: read-out: Btk IC50.
Sequence of BTK, recombinant human catalytic domain (aa 393-659) (Q06187 393-659): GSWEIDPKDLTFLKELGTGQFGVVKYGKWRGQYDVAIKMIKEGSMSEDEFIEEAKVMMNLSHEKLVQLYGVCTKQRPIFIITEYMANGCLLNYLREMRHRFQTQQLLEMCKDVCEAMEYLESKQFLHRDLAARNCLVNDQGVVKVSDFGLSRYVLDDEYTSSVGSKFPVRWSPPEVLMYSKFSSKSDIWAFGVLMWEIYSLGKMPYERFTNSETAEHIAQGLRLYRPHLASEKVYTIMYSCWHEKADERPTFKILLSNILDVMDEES
For `CC/C=C(\C)C(=O)Nc1cccc(-c2ccc(C(N)=O)c3[nH]c(C4=CCN(S(C)(=O)=O)CC4)cc23)c1C` [D.7.16], the half-inhibitory concentration (IC50) is under 100 nM.
Same read-out and setting: the same measure for `NC(=O)c1ccc(N2CCC[C@@H](n3cnc4ccccc4c3=O)C2)c2cc[nH]c12` [O.1.12*]: 1000 to 10000 nM.
Same read-out and setting: the same measure for `C=CC(=O)N1CCC[C@H](c2ncc(C(N)=O)c3[nH]ccc23)C1` [E.9.33]: 100 to 1000 nM; for `CC(=O)NCc1ccccc1-c1cc2c(-c3cccc(NC(=O)c4nccs4)c3C)ccc(C(N)=O)c2[nH]1` [E.4.3]: 100 to 1000 nM.
Still for that read-out and setting: the same measure for `Cc1c(-c2ccc(C(N)=O)c3[nH]c(C4=CCN(C)CC4)cc23)cccc1-n1cnc2ccccc2c1=O` [H.1.1]: under 100 nM.

The same assay, now with this note: trFRET, 0.001 mM ATP, biotin-TYR1 peptide substrate; read-out: Btk IC50.
Turning to `C=CC(=O)N1CC(Oc2ccc(C(N)=O)c3[nH]ccc23)C1` [Example 27, 4-((1-Acryloylazetidin-3-yl)oxy)-1H-indole-7-carboxamide], the IC50 was under 100 nM.
On the same count and under the same terms, the same measure for `CC(=O)N1CC=C(c2cc3c(-c4cccc(-n5cnc6ccc(F)cc6c5=O)c4C)ccc(C(N)=O)c3[nH]2)CC1` [A.3.2]: under 100 nM; for `NC(=O)c1ccc(-c2cccc(NC(=O)/C=C/C(=O)O)c2)c2cc[nH]c12` [C.1, (E)-4-((3-(7-Carbamoyl-1H-indol-4-yl)phenyl)amino)-4-oxobut-2-enoic acid]: 1000 to 10000 nM; for `C=C(CN(C)C)C(=O)Nc1cccc(-c2ccc(C(N)=O)c3[nH]ccc23)c1` [D.6.1]: under 100 nM.
Still for that read-out and setting: the same measure for `C=CC(=O)N[C@H]1CC[C@H](c2ccc(C(N)=O)c3[nH]ccc23)C1` (relative stereo) [Example 11, 4-(trans-3-Acrylamidocyclopentyl)-1H-indole-7-carboxamide]: under 100 nM; for `NC(=O)c1ccc(-c2ccncc2)c2cc(-c3ccc(F)cc3)[nH]c12` [A.9.4]: 100 to 1000 nM.
On the same count and under the same terms, the same measure for `C=CC(=O)NCc1cccc(-c2ccc(C(N)=O)c3[nH]c(C4=CCN(S(C)(=O)=O)CC4)cc23)c1` [A.4.1]: under 100 nM.

(Values after patent US9567339B2, “Primary carboxamides as BTK inhibitors” (AbbVie Inc., priority 2013, dated 2017).)
